Test results as given in US6342514B1, “Compositions and methods for treating bone deficit conditions” (ZymoGenetics, Inc., priority 1996, dated 2002).

Assays:
[1] = tested on: TMC-23 mouse clonal chondrogenic cell line; test: Chondrogenic activity: alkaline phosphatase (ALP) activity in TMC-23 cells; assay type: cell-based; conditions: day 2, 10^−9 M, compared to vehicle control
Procedure: Briefly, a mouse clonal chondrogenic cell line, TMC-23, was isolated and cloned from costal cartilage of transgenic mice containing the BMP-2 gene control region driving SV-40 large T-antigen, generated as described in Ghosh-Choudhury et al Endocrinology 137:331-39, 1996.
For measurement of alkaline phosphatase (ALP) activity, the technique of LF Bonewald et al. J Biol Chem (1992) 267:8943-49, was employed. Briefly, TMC-23 cells were plated in 96 well microtiter plates in DMEM containing 10% FCS at 4×10^3 cells/well. Two days after plating, the cells were confluent and the medium was replaced with fresh medium containing 10% FCS and different concentrations of compounds or recombinant BMP-2. After an additional 2 or 5 days incubation, the plates were washed twice with PBS, and then lysing solution (0.05% Triton X-100) was added (100 μl/well). The cells were lysed by three freeze-thaw cycles of −70° C. (30 min), followed by 37° C. (30 min with shaking). […] The spectrophotometric absorbance at 405 nm was compared to that of p-nitrophenol standards to estimate ALP activity in the samples. The protein content of the cell lysates was determined by the Bio-Rad protein assay kit (Bio-Rad, Hercules, Calif.). Specific activity was calculated using these two parameters.

[2] = tested on: calvarial bone of ICR Swiss white mice; test: In vivo assay of effects of compounds on murine calvarial bone growth; parameters: species or system mouse; conditions: subcutaneous injection over right calvaria, day 14, compared to vehicle control
Procedure: Male ICR Swiss white mice, aged 4-6 weeks and weighing 13-26 gm, are employed, using 4-5 mice per group. The calvarial bone growth assay is performed as described in PCT application WO 95/24211. Briefly, the test compound or appropriate control vehicle is injected into the subcutaneous tissue over the right calvaria of normal mice. Typically, the control vehicle is the vehicle in which the compound was solubilized, and is PBS containing 5% DMSO or is PBS containing Tween (2 μl/10 ml). The animals are sacrificed on day 14 and bone growth measured by histomorphometry. Bone samples for quantitation are cleaned from adjacent tissues and fixed in 10% buffered formalin for 24-48 hours, decalcified in 14% EDTA for 1-3 weeks, processed through graded alcohols; and embedded in paraffin wax. Three to five μm sections of the calvaria are prepared, and representative sections are selected for histomorphometric assessment of the effects on bone formation and bone resorption. Sections are measured by using a camera lucida attachment to trace directly the microscopic image onto a digitizing plate. Bone changes are measured on sections cut 200 μm apart, over 4 adjacent 1×1 mm fields on both the injected and noninjected sides of the calvaria. New bone is identified by its characteristic woven structure, and osteoclasts and osteoblasts are identified by their distinctive morphology. […]

mouse BMP2 promoter = test: High throughput screening: BMP-2 promoter luciferase reporter assay in 2T3-BMP-2-LUC cells; assay type: cell-based; conditions: at about 3 μM
Excerpt: A rapid throughput screening test for compounds capable of stimulating expression of a reporter gene linked to a BMP promoter (a surrogate for the production of bone morphogenetic factors that are endogenously produced) is described in U.S. application Ser. No. 08/458,434, filed Jun. 2, 1995, the contents of which are incorporated herein by reference. This assay is also described as a portion of a study of immortalized murine osteoblasts (derived from a mouse expressing a transgene composed of a BMP2 promoter driving expression of T-antigen) in Ghosh-Choudhery, N. et al. Endocrinology (1996) 137:331-39. […]
Briefly, the assay utilizes cells transformed permanently or transiently with constructs in which the promoter of a bone morphogenetic protein, specifically BMP2 or BMP4, is coupled to a reporter gene, typically luciferase. These transformed cells are then evaluated for the production of the reporter gene product; compounds that activate the BMP promoter will drive production of the reporter protein, which can be readily assayed. […]
The treated cells were incubated for 24 hours at 37° C. and 5% CO2. […] Luminescence was measured on an automated 96-well luminometer, and was expressed as either picograms of luciferase activity per well or as picograms of luciferase activity per microgram of protein. […]

c1ccc(N=NC2=NNc3ccccc3S2)cc1 [Compound 59-0008, 3-phenylazo-1H-4,1,2-benzothiadiazine]
increase of ALP levels [1]: approximately 3 fold | increase in width of new calvarial bone [2]: 4 fold | luciferase response at maximal activity (mouse BMP2 promoter): approximately 175 light emission units
